Laboratory results published in patent US5241065A, “2,3,4,5-tetrahydro-1H-3-benzazepines having anti-psychotic activity” (Schering Corporation, priority 1992, dated 1993).
Read-outs that look alike come from different tables or passages of the source.

Experiments:
[1] = tested on: squirrel monkeys; assay: Suppression of conditioned avoidance response (CAR) in squirrel monkeys; format: in vivo; details: Saimiri, in Primates, po, read-out: Monkey CAR, minimal effective dose (MED)
Excerpt: This test is designed to measure the effective duration of candidate compounds.
Male or female squirrel monkeys weighing 800-1200 g housed one per cage are utilized. Initially each monkey is taught to terminate both a 3mA electric shock delivered through the grid floor of the test cage and an overlapping tone by depressing a lever in the cage.
In the second phase of the testing, a ten second tone is turned on prior to the shock component. A lever pass during the sounding of the tone terminates the tone and prevents the occurrence of the shock component and is denoted as an "avoidance".
The compound testing is commenced after three consecutive days of re-testing. […] The monkey must achieve at lest an 85% correct avoidance before drug testing commences. If this minimal avoidance level is achieved, the next day the monkey is orally dosed or injected with the subject compounds in the appropriate vehicle, and the number of avoidances are recorded. An animal is defined as having been "affected" by any drug treatment if there is a 50% loss of avoidance behavior relative to the performance of the animal when only the vehicle is injected. The minimal effective dose (MED) is defined as that dose producing an effect in at least 50% of the animals.
A test may be conducted to determine the effective duration of a compound in accordance with the present invention by comparing a compound of the invention to the known compound SCH 23390. A compound of the invention administered 60 minutes prior to the test is compared to SCH 23390 administered 30 minutes prior to test. The duration of each compound is determined by administering a 12.0 mg/kg p.o. dose six hours prior to testing.

[2] = tested on: rats; assay: Conditioned avoidance response (CAR) suppression in rats; format: in vivo; details: Rattus norvegicus, read-out: Rat CAR, minimal effective dose (MED)
Protocol: N.Y. Acad. Sci. 66, 740 (1957)]. A series of experiments was carried out to assess the ability of the compounds of this invention to suppress the conditioned avoidance response (CAR) in rats.
Rats were required to jump onto a platform located 6.75 inches (17.15 cm) above the grid floor of an experimental chamber in response to a 5-second tone to avoid a 10-second foot shock (0.6 ma). Each experimental session consisted of 20 such trials presented at 30-second intervals. A correct CAR is scored whenever the rat jumps onto the platform during the tone (prior to foot shock). An escape response is scored when the rat jumps onto the platform during a shock. A response failure is defined as the lack of an escape response during the 10-second shock period.
Groups of 6-8 rats were trained in two consecutive days (total of 40 trials). Rats that reached criterion on day 2 (correct CARs in 16 or more of the 20 trials) were treated with either a test drug or a vehicle on day 3. Suppression of CAR was analyzed statistically using Student's t-test comparing the performances of drug-treated to vehicle-treated rats.

[3] = biological target: T1, dopamine D-1 receptor (Rattus norvegicus, UniProt P18901); assay: Competitive inhibition assay, 3H-SCH 23390 binding to rat striatal tissue (dopamine D-1); parameters: species or system Male Sprague-Dawley rats; details: rat striatal homogenate, 0.3 nM 3H-SCH 23390, pH 7.4, 37° C., 15 minutes, read-out: Ki against 3H-SCH 23390
T1 construct: Striatal tissue was excised, pooled, and homogenized; from tissue; host or cells: rat striatum (Sprague-Dawley), washed membrane homogenate
Excerpt: (§1) Many compounds capable of effecting reproducible physiological changes in neural tissues are believed to operate by binding at one or more receptor sites.
(§2) A methodology for characterization of binding and an interpretation of the data are described by Billard et al., Life Sciences 35, 1885 (1984) in which the binding of (R)-(+)-7-chloro-8-hydroxy-3-methyl-1-phenyl-2,3,4,5-tetrahydro-1H-3-benzazepine (SCH 23390) (as its hemi-maleate) to the dopamine D-1 receptor is characterized.
(§3) Tritiated SCH 23390 and tritiated spiperone (a potent D-2 ligand) were obtained as described in the Billard et al. reference supra and serially diluted in 0.05 M Tris buffer, pH 7.4, as required. A compound of the invention was diluted in 0.05 M Tris buffer, pH 7.4, as required.
(§4) Male Sprague-Dawley rats (200 to 250 g) from Charles River Breeding Laboratories, Mass., were used to obtain brain tissue. The rats were humanely sacrificed and their brains removed and placed on ice. Striatal tissue was excised, pooled, and homogenized (Brinkman Polytron, 10 sec) in 100 volumes (w/v) of ice cold 50 mM Tris buffer, pH 7.4 (at 25° C.). The homogenate was centrifuged at 20,000 x g for 10 min. The resulting pellet was re-homogenized in Tris buffer and centrifuged again. The final pellet was resuspended in 50 mM Tris buffer, pH 7.4 containing 120 mM NaCl, 5 mM KCl, 2 mM CaCl2, and 1 mM MgCl2.
(§5) Polypropylene incubation tubes received 100 μl of the individual test compounds at various concentrations dissolved or suspended in 0.05 M Tris buffer, pH 7.4 containing 4 mg/ml methylcellulose, 100 μl of a solution of ^3 H-SCH 23390 in Tris buffer (final reaction mixture concentration=0.3nM) or 100 μl of a solution of ^3 H-spiperone in Tris buffer (final concentration=0.2 nM) and 800 μl of tissue suspension (ca. 3 mg/assay). Tubes were incubated at 37° C. for 15 minutes and rapidly vacuum filtered through Whatman GF/B filters and rinsed 4 times with 4 ml of ice cold 50 mM Tris buffer, pH 7.4. The filters were transferred to scintillation vials, equilibrated with 10 ml of scintillant (Scintosol, Isolab, Inc.) for 16 hours at 25° C., and the radioactivity was determined in a liquid scintillation counter. Ki values were determined as described by Billard et al. using the relationship: K i =IC50 /(1+([…])) wherein IC50 =concentration of test drug necessary to displace 50% of specifically bound ^3 H-SCH 23390, [L]=concentration of radioligand used in the assay, and KD =dissociation constant.

[4] = biological target: T2, D-2 receptor (Rattus norvegicus, UniProt P61169); assay: Competitive inhibition assay, 3H-spiperone binding to rat striatal tissue (D-2); parameters: species or system Male Sprague-Dawley rats; details: rat striatal homogenate, 0.2 nM 3H-spiperone, pH 7.4, 37° C., 15 minutes, read-out: Ki against 3H-spiperone
T2 construct: Striatal tissue was excised, pooled, and homogenized; from tissue; host or cells: rat striatum (Sprague-Dawley), washed membrane homogenate
Excerpt: as §1, §2, §3, §4, §5

[5] = tested on: rat; assay: Toxicity, rat; format: in vivo; details: for Toxicity, rat: result in words, dose in mpk within the value
Excerpt: The compounds of this invention are substantially non-toxic at the therapeutic close, as is shown in the following Table 4, which compares them with related reference compounds: […]

T2 sequence (P61169 whole entry): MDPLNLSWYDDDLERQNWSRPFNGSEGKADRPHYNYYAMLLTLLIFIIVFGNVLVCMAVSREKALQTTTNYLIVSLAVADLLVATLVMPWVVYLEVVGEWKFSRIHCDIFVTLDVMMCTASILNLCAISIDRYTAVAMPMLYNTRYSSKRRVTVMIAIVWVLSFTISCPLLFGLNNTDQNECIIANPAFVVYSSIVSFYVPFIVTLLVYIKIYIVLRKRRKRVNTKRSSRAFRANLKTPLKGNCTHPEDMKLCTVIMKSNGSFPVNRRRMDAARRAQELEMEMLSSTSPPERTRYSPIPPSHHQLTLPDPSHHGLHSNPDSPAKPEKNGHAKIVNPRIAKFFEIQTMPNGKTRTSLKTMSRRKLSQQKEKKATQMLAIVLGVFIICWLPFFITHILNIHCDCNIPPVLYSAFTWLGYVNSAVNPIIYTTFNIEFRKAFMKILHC
T1 sequence (P18901 whole entry): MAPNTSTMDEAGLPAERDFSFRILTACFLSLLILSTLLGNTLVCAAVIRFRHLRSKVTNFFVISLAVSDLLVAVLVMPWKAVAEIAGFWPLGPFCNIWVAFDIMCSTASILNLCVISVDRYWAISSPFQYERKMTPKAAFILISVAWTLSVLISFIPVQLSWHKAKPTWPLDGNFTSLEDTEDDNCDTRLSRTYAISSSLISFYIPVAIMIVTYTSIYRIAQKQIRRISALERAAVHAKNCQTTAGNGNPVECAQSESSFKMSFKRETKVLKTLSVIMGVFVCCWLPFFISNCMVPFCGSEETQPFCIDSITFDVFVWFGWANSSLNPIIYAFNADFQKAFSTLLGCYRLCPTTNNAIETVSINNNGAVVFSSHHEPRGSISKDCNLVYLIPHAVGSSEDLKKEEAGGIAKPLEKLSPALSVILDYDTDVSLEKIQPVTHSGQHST

Row | Structure (SMILES) | Ki [3] | Ki [4] | minimal effective dose ([2]; po (per oral)) | Toxicity, rat [5] | other results
1 | Cc1cc2c(cc1O)C(C1=CCCCC1)CN(C)CC2 (racemic) [A, (R,S)-1-(1-cyclohexenyl)-8-hydroxy-3,7-dimethyl-2,3,4,5-tetrahydro-1H-3-benzazepine, reference compound] | 8.7 nM | 1880 nM | > 30 mg/kg |  | minimal effective dose [1]: 3 mg/kg; minimal effective dose ([1]; at 1 hour): 10 mg/kg; Toxicity, rat: salivation ([5]; 10 mpk po, after 1 hour): salivation in 1 of 3 rats
2 | CC1=C(C2CN(C)CCc3cc(Cl)c(O)cc32)CCC1 (racemic) [G, (R,S)-7-chloro-8-hydroxy-3-methyl-(2-methyl-1-cyclopentenyl)-2,3,4,5-tetrahydro-1H-3-benzazepine] | 0.27 nM | 656 nM | 10 mg/kg | Non-toxic at 300 mpk | minimal effective dose [1]: 5 mg/kg; minimal effective dose ([1]; at 6 hours): 20 mg/kg; minimal effective dose ([2]; po, at 6 hours): 50 mg/kg; minimal effective dose ([2]; sc (subcutaneous)): 0.01 mg/kg
3 | CN1CCc2cc(Cl)c(O)cc2C(C2CCCC2)C1 (stereo not drawn) [D, reference compound] |  |  | > 30 mg/kg |  | minimal effective dose ([2]; sc (subcutaneous)): 3 mg/kg
4 | Cc1cc2c(cc1O)C(C1CCCCC1)CN(C)CC2 (stereo not drawn) [E, reference compound] | 48 nM | 3610 nM | 10 mg/kg | Lethal at 300 mpk | minimal effective dose ([2]; sc (subcutaneous)): 3 mg/kg
5 | Cc1cc2c(cc1O)C(C1CCCC1)CN(C)CC2 (stereo not drawn) [F, reference compound] | 44 nM | 1050 nM |  | Lethal at 300 mpk | 
6 | CC1=C([C@H]2CN(C)CCc3cc(Cl)c(O)cc32)CCC1 [H, (R)-7-chloro-8-hydroxy-3-methyl-1-(2-methyl-1-cyclopentenyl)-2,3,4,5-tetrahydro-1H-3-benzazepine] | 0.43 nM | 358 nM | 5 mg/kg | Non-toxic at 150 mpk | minimal effective dose [1]: 2 mg/kg; minimal effective dose ([1]; at 4 hours): 10 mg/kg; minimal effective dose ([2]; po, at 6 hours): 25 mg/kg
7 | CN1CCc2cc(Cl)c(O)cc2[C@@H](C2=CCCCC2)C1 [M, (R)-7-chloro-1-(1-cyclohexenyl)-8-hydroxy-3-methyl-2,3,4,5-tetrahydro-1H-3-benzazepine] | 0.87 nM | 1090 nM | 10 mg/kg | Secretions at 300 mpk | 
8 | CC(C)=C(C)C1CN(C)CCc2cc(Cl)c(O)cc21 (stereo not drawn) [P] | 2.8 nM | 554 nM | 10 mg/kg |  | 

Now from value to molecule, other results behind:

Row | Ki [3] | Ki [4] | Structure (SMILES) | minimal effective dose ([2]; po (per oral)) | Toxicity, rat [5] | other results
9 | 2.2 nM | 1440 nM | CN1CCc2cc(Cl)c(O)cc2C(C2=CCCCC2)C1 (racemic) [K, (R,S)-7-chloro-1-(1-cyclohexenyl)-8-hydroxy-3-methyl-2,3,4,5-tetrahydro-1H-3-benzazepine] |  |  | 
10 | 0.83 nM | 420 nM | CC1=C(C2CN(C)CCc3cc(Cl)c(O)cc32)CCCC1 (racemic) [N, (R,S)-7-chloro-8-hydroxy-3-methyl-1-(2-methyl-1-cyclohexenyl)-2,3,4,5-tetrahydro-1H-3-benzazepine] | 30 mg/kg |  | 
11 | 2.3 nM | 595 nM | CN1CCc2cc(Cl)c(O)cc2C(C2=CCCC2)C1 (racemic) [Q, (R,S)-7-chloro-1-(1-cyclopentenyl)-8-hydroxy-3-methyl-2,3,4,5-tetrahydro-1H-3-benzazepine] |  |  | 
12 | 101 nM | 4370 nM | Cc1cc2c(cc1O)[C@H](C1=CCCCC1)CN(C)CC2 [B, (S)-1-(1-cyclohexenyl)-8-hydroxy-3,7-dimethyl-2,3,4,5-tetrahydro-1H-3-benzazepine, reference compound] | > 30 mg/kg |  | 
13 | 4 nM | 1670 nM | Cc1cc2c(cc1O)[C@@H](C1=CCCCC1)CN(C)CC2 [C, (R)-1-(1-cyclohexenyl)-8-hydroxy-3,7-dimethyl-2,3,4,5-tetrahydro-1H-3-benzazepine, reference compound] |  |  | minimal effective dose ([2]; sc (subcutaneous)): 0.1 mg/kg
14 | 15 nM | 3690 nM | CC1=C([C@@H]2CN(C)CCc3cc(Cl)c(O)cc32)CCC1 [J, (S)-7-chloro-8-hydroxy-3-methyl-1-(2-methyl-1-cyclopentenyl)-2,3,4,5-tetrahydro-1H-3-benzazepine] | > 30 mg/kg |  | 
15 | 23 nM | 2080 nM | CN1CCc2cc(Cl)c(O)cc2[C@H](C2=CCCCC2)C1 [L, (S)-7-chloro-1-(1-cyclohexenyl)-8-hydroxy-3-methyl-2,3,4,5-tetrahydro-1H-3-benzazepine] | > 30 mg/kg |  | 
